Legend:
IDO1 [1] = target: T1, IDO1 (Homo sapiens, UniProt P14902); assay: IDO1 Human Whole blood Assay; format: cell-based; parameters: Human whole blood was drawn in sodium heparin coated tubes from healthy internal donors; from tissue; host or cells: human whole blood from healthy donors, stimulated with LPS and IFNγ; conditions: LPS and IFNγ stimulated, 18 h, read-out: Human Whole Blood Potency, IC50
Protocol: IDO1Human Whole blood Assay
Compounds to be tested were serially diluted in ten 3-fold steps in DMSO starting from 10 mM. 3 μL of compound dilutions or DMSO alone were then dispensed from the dilution plate into a polypropylene 96-well assay plate containing 97 μL of RPMI medium using an Echo 555 acoustic liquid handler (Labcyte). LPS and IFNγ was prepared in RPMI medium to a 10× of final conc. (1000 ng/mL), final concentration is 100 ng/mL.
Human whole blood was drawn in sodium heparin coated tubes from healthy internal donors. 240 μL of blood was transferred to each of the wells of a v-bottom 96 well plate. 30 μL of compound was transferred from intermediate dilution plate, and incubated for 15 min. 30 μL from stimulants was then transferred to blood and mixed thoroughly. Plate was covered with breathable membrane and incubated at 37° C. for overnight (18 h).
On day 2, isotope labeled standard solutions of kynurenine and tryptophan was made in water at 10× concentration and 30 μL was added to the blood at 3 μM final concentration. The assay plates were centrifuged at 300×G for 10 min with no brake to separate plasma from red blood cells. 60 μL of plasma samples was removed without disturbing red blood cells. Plasma was diluted with RPMI in 1:1 ratio and proteins were precipitated out with two volumes of Acetonitrile. The plates were centrifuged at 4000×G for 60 min. 20 μL of supernatant was carefully transferred to a 384 well plate containing 40 μL of 0.1% formic acid in water and analyzed by LC/MS/MS.
LC/MS/MS analyses were performed using Thermo Fisher's LX4-TSQ Quantum Ultra system. This system consists of four Agilent binary high-performance liquid chromatography (HPLC) pumps and a TSQ Quantum Ultra triple quadrupole MS/MS instrument. For each sample, 5 μL were injected onto an Atlantis T3 column (2.1 mm×150 mm, 3 μm particle size) from Waters. The mobile phase gradient pumped at 0.8 mL/min was used to elute the analytes from the column at 25° C. The elution started at 0% B increasing linearly to 25% B at 6.5 min, holding at 25% for 1 min, re-equilibrating to 10 min. Mobile phase A consisted of 0.1% formic acid in water. Mobile phase B consisted of 0.1% of formic acid in acetonitrile. Data were acquired in positive mode using a HESI interface. The operational parameters for the TSQ Quantum Ultra instrument were a spray voltage of 4000 V, capillary temperature of 380° C., vaporizer temperature 400° C., shealth gas 60 arbitrary units, Aux gas 20 arbitrary units, tube lens 85 and collision gas 1.2 mTorr. SRM chromatograms of kynurenine (Q1: 209.2>Q3:94.0) and internal standard (Q1: 215.3>Q3:98.2) were collected for 90 sec. The peak area was integrated by Xcalibur Quan software. The ratios between the kynurenine generated in the reaction and 2D6-Kynurenine spiked-in internal standard were used to generate percentage inhibition and IC50 values. Compounds were titrated and IC50's were calculated by 4 parameter sigmoidal curve fitting formula.

IDO1 [2] = target: T1, IDO1; assay: IDO1 Cellular Assay in HeLa Cells Stimulated with IFNγ; format: cell-based; conditions: read-out: HeLa Cell Potency, IC50

T1 sequence (P14902 whole entry): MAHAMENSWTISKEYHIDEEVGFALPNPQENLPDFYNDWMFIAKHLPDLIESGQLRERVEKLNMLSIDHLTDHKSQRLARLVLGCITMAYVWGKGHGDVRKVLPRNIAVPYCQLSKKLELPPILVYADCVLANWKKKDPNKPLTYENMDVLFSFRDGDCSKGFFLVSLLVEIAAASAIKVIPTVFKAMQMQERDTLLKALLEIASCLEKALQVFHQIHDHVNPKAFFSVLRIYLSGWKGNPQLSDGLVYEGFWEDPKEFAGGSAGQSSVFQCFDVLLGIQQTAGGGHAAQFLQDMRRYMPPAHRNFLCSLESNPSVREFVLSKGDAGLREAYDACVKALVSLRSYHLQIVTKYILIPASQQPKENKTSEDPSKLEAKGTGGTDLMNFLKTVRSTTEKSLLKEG

Row | Compound | IC50 (IDO1 [1]) | IC50 (IDO1 [2])
1 | Cc1cccc(N2CCN(C(=O)Cn3nc(C(=O)N4CC[C@@H](O)C(F)(F)C4)c4c3CCC4)CC2)c1C (single isomer, unassigned) [Example 202, 2-[3-[(4R or 4S)-3,3-difluoro-4-hydroxy-piperidine-1-carbonyl]-5,6-dihydro-4H-cyclopenta[c]pyrazol-1-yl]-1-[4-(2,3-dimethylphenyl)piperazin-1-yl]ethanone] | 0.516 µM | 0.00591 µM
2 | Cc1cccc(N2CCN(C(=O)Cn3nc(C(=O)N4CCC(O)C(F)C4)c4c3CCC4)C3(CC3)C2)c1C (single isomer, unassigned) [Example 328, 1-[7-(2,3-dimethylphenyl)-4,7-diazaspiro[2.5]octan-4-yl]-2-[3-(3-fluoro-4-hydroxy-piperidine-1-carbonyl)-5,6-dihydro-4H-cyclopenta[c]pyrazol-1-yl]ethanone] | 4.16 µM | 0.00686 µM
3 | Cc1cccc(N2CCN(C(=O)Cn3nc(C(=O)N4CCC(O)C(F)C4)c4c3CCC4)C3(CC3)C2)c1C (single isomer, unassigned) [Example 329, 1-[7-(2,3-dimethylphenyl)-4,7-diazaspiro[2.5]octan-4-yl]-2-[3-(3-fluoro-4-hydroxy-piperidine-1-carbonyl)-5,6-dihydro-4H-cyclopenta[c]pyrazol-1-yl]ethanone] | 0.904 µM | 0.0072 µM
4 | Cc1cccc(N2CCN(C(=O)Cn3nc(C(=O)N4CCC(O)C(F)C4)c4c3CCC4)C3(CC3)C2)c1C (single isomer, unassigned) [Example 330, 1-[7-(2,3-dimethylphenyl)-4,7-diazaspiro[2.5]octan-4-yl]-2-[3-(3-fluoro-4-hydroxy-piperidine-1-carbonyl)-5,6-dihydro-4H-cyclopenta[c]pyrazol-1-yl]ethanone] | 0.971 µM | 0.00761 µM
5 | Cc1c(Cl)cccc1N1CCN(C(=O)Cn2nc(C(=O)N3CCC(OCCO)CC3)c3c2CCC(F)C3)CC1 (single isomer, unassigned) [Example 368, 1-(4-(3-chloro-2-methylphenyl)piperazin-1-yl)-2-(5-fluoro-3-(4-(2-hydroxyethoxy)piperidine-1-carbonyl)-4,5,6,7-tetrahydro-1H-indazol-1-yl)ethan-1-one] | 0.055 µM | 0.0028 µM
6 | Cc1c(Cl)cccc1N1CCN(C(=O)Cn2nc(C(=O)N3CCC(OCCO)CC3)c3c2CCC(F)C3)CC1 (single isomer, unassigned) [Example 373, 1-(4-(3-chloro-2-methylphenyl)piperazin-1-yl)-2-(5-fluoro-3-(4-(2-hydroxyethoxy)piperidine-1-carbonyl)-4,5,6,7-tetrahydro-1H-indazol-1-yl)ethan-1-one] | 0.202 µM | 0.00378 µM
7 | Cc1cccc(N2CCN(C(=O)Cn3nc(C(=O)N4CCC(O)C(F)C4)c4c3CCC4)C3(CC3)C2)c1C (single isomer, unassigned) [Example 393, 1-(7-(2,3-dimethylphenyl)-4,7-diazaspiro[2.5]octan-4-yl)-2-(3-(3-fluoro-4-hydroxypiperidine-1-carbonyl)-5,6-dihydrocyclopenta[c]pyrazol-1(4H)-yl)ethanone] | 0.971 µM | 0.00761 µM
8 | Cc1cccc(N2CCN(C(=O)Cn3nc(C(=O)N4CCC(O)C(F)C4)c4c3CCC4)C3(CC3)C2)c1C (single isomer, unassigned) [Example 394, 1-(7-(2,3-dimethylphenyl)-4,7-diazaspiro[2.5]octan-4-yl)-2-(3-(3-fluoro-4-hydroxypiperidine-1-carbonyl)-5,6-dihydrocyclopenta[c]pyrazol-1(4H)-yl)ethanone] | 0.904 µM | 0.0072 µM
9 | Cc1cccc(N2CCN(C(=O)Cn3nc(C(=O)N4CCC(O)C(F)C4)c4c3CCC4)C3(CC3)C2)c1C (single isomer, unassigned) [Example 395, 1-(7-(2,3-dimethylphenyl)-4,7-diazaspiro[2.5]octan-4-yl)-2-(3-(3-fluoro-4-hydroxypiperidine-1-carbonyl)-5,6-dihydrocyclopenta[c]pyrazol-1(4H)-yl)ethanone] | 4.16 µM | 0.00686 µM
10 | Cc1cccc(N2CCN(C(=O)Cn3nc(C(=O)N4CCC(O)C(F)C4)c4c3CCC4)C3(CC3)C2)c1C (single isomer, unassigned) [Example 396, 1-(7-(2,3-dimethylphenyl)-4,7-diazaspiro[2.5]octan-4-yl)-2-(3-(3-fluoro-4-hydroxypiperidine-1-carbonyl)-5,6-dihydrocyclopenta[c]pyrazol-1(4H)-yl)ethanone] | 0.625 µM | 0.00408 µM
11 | Cc1cccc(N2CCN(C(=O)Cn3nc(C(=O)N4CC[C@@H](O)[C@@H](F)C4)c4c3CC(F)C4)CC2)c1C (single isomer, unassigned) [Example 418] | 2.47 µM | 0.0317 µM
12 | Cc1cccc(N2CCN(C(=O)Cn3nc(C(=O)N4CC[C@@H](O)[C@@H](F)C4)c4c3CC(F)C4)CC2)c1C (single isomer, unassigned) [Example 419] | 1.15 µM | 0.0108 µM
13 | Cc1c(F)ccc(N2CCN(C(=O)Cn3nc(C(=O)N4CCC(O)C(CO)C4)c4c3C[C@@H]3C[C@H]43)C3(CC3)C2)c1C (stereo in doubt) [Example 324, 1-[7-(4-fluoro-2,3-dimethylphenyl)-4,7-diazaspiro[2.5]octan-4-yl]-2-{(3bS,4aS)-3-[4-hydroxy-3-(hydroxymethyl)piperidine-1-carbonyl]-3b,4,4a,5-tetrahydro-1H-cyclopropa[3,4]cyclopenta[1,2-c]pyrazol-1-yl}ethan-1-one] | 0.555 µM | 0.00064 µM
14 | Cc1cccc(N2CCN(C(=O)Cn3nc(C(=O)N4CCCC4)c4c3CCC4)CC2)c1C [Example 1, 1-(4-(2,3-dimethylphenyl)piperazin-1-yl)-2-(3-(pyrrolidine-1-carbonyl)-5,6-dihydrocyclopenta[c]pyrazol-1(4H)-yl)ethanone] | 1.82 µM | 0.00875 µM
15 | Cc1cccc(N2CCN(C(=O)Cn3nc(C(=O)N4CCCC4)c4c3CCCC4)CC2)c1C [Example 2, 1-[4-(2,3-dimethylphenyl)piperazin-4-ium-1-yl]-2-[3-(pyrrolidine-1-carbonyl)-4,5,6,7-tetrahydroindazol-1-yl]ethanone] | 0.555 µM | 0.00488 µM
16 | Cc1cccc(N2CCN(C(=O)Cn3nc(C(=O)N4CCCC4)c4c3CCCCC4)CC2)c1C [Example 5, 1-[4-(2,3-dimethylphenyl)piperazin-4-ium-1-yl]-2-[3-(pyrrolidine-1-carbonyl)-5,6,7,8-tetrahydro-4H-cyclohepta[c]pyrazol-1-yl]ethanone] | 0.414 µM | 0.00683 µM
17 | Cc1c(F)ccc(N2CCN(C(=O)Cn3nc(C(=O)N4C[C@@H](C)O[C@@H](C)C4)c4c3CCC4)CC2)c1C [Example 48, 2-{3-[(2R,6S)-2,6-dimethylmorpholine-4-carbonyl]-5,6-dihydrocyclopenta[c]pyrazol-1(4H)-yl}-1-[4-(4-fluoro-2,3-dimethylphenyl)piperazin-1-yl]ethan-1-one] | 0.492 µM | 0.00293 µM
18 | Cc1c(Cl)cccc1N1CCN(C(=O)Cn2nc(C(=O)N3C[C@@H](C)O[C@@H](C)C3)c3c2CCC3)CC1 [Example 68, 1-[4-(3-chloro-2-methylphenyl)piperazin-1-yl]-2-{3-[(2R,6S)-2,6-dimethylmorpholine-4-carbonyl]-5,6-dihydrocyclopenta[c]pyrazol-1(4H)-yl}ethan-1-one] | 1.01 µM | 0.0036 µM
19 | Cc1cccc(N2CCN(C(=O)Cn3nc(C(=O)N4CC[C@H](CO)C4)c4c3CCC4)CC2)c1C [Example 83, 1-[4-(2,3-dimethylphenyl)piperazin-1-yl]-2-{3-[(3S)-3-(hydroxymethyl)pyrrolidine-1-carbonyl]-5,6-dihydrocyclopenta[c]pyrazol-1(4H)-yl}ethan-1-one] | 3.49 µM | 0.00563 µM

From US12264134B2 (Merck Sharp & Dohme LLC, priority 2018, dated 2025)
